From publication PMC8097335, “A High‐Affinity Calmodulin‐Binding Site in the CyaA Toxin Translocation Domain is Essential for Invasion of Eukaryotic Cells” (Advanced Science, 2021)
pKd, pKi: −log10 of the molar value.

Columns and labels:
[1] = Peptide titrations by SUVs followed by tryptophan fluorescence (solution-to-membrane partition); format: physicochemical
Summary of the method: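 Peptides were titrated with POPC:POPG (8:2) SUVs at 25°C, with tryptophan fluorescence excited at 280 nm and emission recorded 300–400 nm. The 330/370 nm intensity ratio, corrected for SUV baseline, was fitted to a partition model to obtain the solution-to-membrane partition coefficient KX.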

[2] = Membrane permeabilization of ANTS/DPX-loaded LUVs
Method: To monitor membrane permeabilization induced by peptides, ANTS (fluorophore probe) and
DPX (quencher) were encapsulated into large unilamellar vesicles (LUVs). The LUVs were
prepared at a concentration of 10 mM lipid at a POPC:PO PG molar ratio of 8:2 containing 20
mM ANTS and 60 mM DPX. The multilamellar vesicle suspension was extrudedthrough 0.4-
and 0.2 μm polycarbonate filters to produce LUVs. The unencapsulated ANT S a nd DPX we re
removed by gel filtration with a 5 mL Sephadex G -25 column (GE Healthcare Life Sciences ).
For permeabilization assays, LUVs were incubated in buffer A at 0.45 mM lipid
concentration at 25°C in a 101-QS cuvette (Hellma, France) and under constant stirring.
excitation wavelength was set at 390 nm and the emission of ANTS was continuously
measured at 515 nm. The maximum intensity of permeabilization, corresponding to the
maximum recovery of ANTS fluorescence, was measured after addition of 0.1% of Triton
X100. The concentration of membrane-bound peptide s required to induce the recovery of half
intensity of the ANTS fluorescence (C P1/2) was extracted from the permeabilization intensity
a s a function of peptide concentration 1.
LUVs were incubated in buffer B at a lipid concentration of 0.45 mM.
After a few seconds of permeabilization,
holo-Ca M wa s added t o t he solution at a peptide:Ca M molar ratio of 1:3. EDT A wa s
subsequently added in excess to chelate calcium and convert holo -CaM to apo -C a M .

[3] = Synchrotron radiation circular dichroism, alpha-helical content (Bestsel); format: physicochemical; settings: 25 °C, far-UV SRCD
Method: Synchrotron Radiation Circular Dichroism
Synchrotron radiation circular dichroism (SRCD) was performed on the DISCO beamline of the synchrotron SOLEIL (Saint -Aubin, France) . Spectra were recorded at 25°C with an integration time of 1.2 s and a bandwidth of 1 nm with a resolution of 1 nm. A far-UV spectrum represents the average of four individual scans. QS cells (Hellma, France) with a pathlength of 20, 50, 100 or 200 μm (depending on final protein concentrations) were used to record spectra in the fa r -UV range (from 190 to 250 nm). CD spectra of peptides and proteins were measured in buffers A and B, 20% of trifluoroethanol (TFE), in the presence of SUVs (POPC :PO PG 8: 2) or Ca M. Secondary structure content was estimated using Bestsel software […]
Table S8: Estimation of the α -helical content of P454-derived peptides. The secondary structure content is estimated using the on-line Bestsel software 17 available at http://bestsel.elte.hu/index.php. […]
peptide in buffer A, in 20% TFE and in the presence of POPC POPG (molar ratio 8:2) at 2 mM lipid concentration. The far -UV CD spectra of several P454-derived peptides are shown […]

[4] = Sedimentation velocity analytical ultracentrifugation; format: physicochemical; settings: 57 µM peptide alone, 20 °C, buffer B
From the text: 400 nm at a scan rate of 100 nm/min, with an excitation wavelength of 280 nm. Fluorescence emission spectra were corrected for SUV or CaM baselines . Fluorescence intensity ratio at 330 nm over 370 nm was use d to measure the partition coefficient (K X) of peptides between the solution andmembrane s 1, 12 and the affinity (K d) of peptides for CaM 13.
Determination of partition coefficient KX and dissociation constant Kd from […]
The partition coefficient KX is defined as the ratio of protein in the lipid (PL) and in buffer […]
(PW) pha se s 12, 14, expressed by: KKXX = [LL ]? , giving[PPWW ] [PPWW ]= [WW], where [W] the […]
concentration of water (55.5 M) and [L] the lipid concentration. […]
The dissociation constant, Kd, is obtained from titration experiments of the P454-derived peptides by CaM and is expressed as follows: KK dd = [PP ]∗[CCCCCC ][PP:CCCCCC] , given KKdd[CCCCCC]= [PP ][PP :CCCCCC]and the fraction of complex, fP:CaM, i s: ffPP:CCCCCC = [PP :CCCCCC ][PP:CCCCCC]+[PP]= 11+ [PP ]= 11+ KKdd. […]
ratio 1:1 (at 70 µM each). […] Detection of protein concentration as a function of radial position and time was monitored with the ProteomeLab software (Beckman Coulter, […]
Brea, CA, USA) by both absorbance at 280 nm and interferometry. […] SV scans were analyzed using the continuous size distribution model c(s) of the software Sedfit 15. […]

[5] = test system: adenylate cyclase (AC384GK, catalytic domain of CyaA); assay: CaM-dependent adenylate cyclase activity with or without calmidazolium; format: biochemical, Bordetella pertussis; settings: CDZ 10 µM, assayed in the presence of 1 µM CaM
Method: (§1) T PCK-treated trypsin (Millipore Sigma, Burlington, MA, USA) for 10 min at 30°C to digest the adenylate cyclase that remained at the external surface of the erythrocytes. A 5-fold excess of soybean trypsin inhibitor was added and cells were washed with buffer A and lysed with 0.1% Tween 20. The activity protected from trypsin digestion corresponds to the internalized toxin. Activities are expressed as percentages of total toxin added to the erythrocytes (taken as 100%) and represent average values from at least three independent measurements. One unit of CyaA activity corresponds to 1 μmol of cAM P formed per min at 30°C and pH 8.0. The bound and internalized AC activities measured with the CyaA recombinant proteins were normalized to that of the WT CyaA toxin. […]
(§2) then resuspended in cold buffer A plus 2 mM CaCl2 and split in two fractions. […] After addition of soybean trypsin inhibitor, the cells were washed with buffer A then lysed with 0.1% Tween 20 and the internalized AC activity protected from trypsin digestion was measured and expressed as a percentage of bound AC activity. […]
(§3) Tryptophan fluorescence is used for the SEC profiles because this allows monitoring the […]
Figure S15: CaM-dependent activation of AC with or without calmidazolium (C D Z ) . […] Th e adenylate cyclase activity is expressed as mol of cAMP per sec per mol of AC384GK. […]

[6] = biological target: holo-CaM; settings: cited from earlier work
[7] = test system: CaM; assay: Size exclusion chromatography of P454, H and AC364 with CaM in the presence of CDZ; format: binding; settings: SEC, buffer B, CaM 15 µM, CDZ 40 µM, tryptophan fluorescence
Method: T PCK-treated trypsin (Millipore Sigma, Burlington, MA, USA) for 10 min at 30°C to digest the adenylate cyclase that remained at the external surface of the erythrocytes. A 5-fold excess of soybean trypsin inhibitor was added and cells were washed with buffer A and lysed with 0.1% Tween 20. The activity protected from trypsin digestion corresponds to the internalized toxin. Activities are expressed as percentages of total toxin added to the erythrocytes (taken as 100%) and represent average values from at least three independent measurements. One unit of CyaA activity corresponds to 1 μmol of cAM P formed per min at 30°C and pH 8.0. The bound and internalized AC activities measured with the CyaA recombinant proteins were normalized to that of the WT CyaA toxin.
For the CyaA intoxication experiments in the presence of calmidazolium (CDZ), in order to minimize the cell exposure to this potent CaM inhibitor, we performed a two-step intoxication assay as described originally by Rogel and Hanski 19. For this, the erythrocytes (5 x 10^8 cells/mL) were in a first step incubated with CyaA (1 μg/mL, 5.6 nM) in buffer A plus 2 mM CaCl2 at 4 °C for 30 min. In these conditions, the toxin can bind to the cell membrane but cannot translocate across membrane 19. […]
as §2
The SEC experiments were performed on a TSKgel G3000SW 7.5 mm ID * 30 cm - column equilibrated in buffer B at a flow rate of 0.6 mL/min at RT. The elution profiles were measured by absorbance at 280 nm, conductivity and by tryptophan fluorescence on a FP750 fluorometer (Ex.: 280 nm; Em.: 340 nm; bandwidths 10/10 nm ) equipped with a on -line cell .
as §3
weak fluorescence signal. […]
fluorescence signal. […]

[8] = test system: sheep erythrocytes; assay: Two-step CyaA intoxication assay with or without calmidazolium; format: cell-based; settings: CyaA […] bound at 4 °C 30 min, 10 μM CDZ added just prior to shift from 4 to 37 °C; 2, 5, 10 min; three independent replicates
Method: as §1, §2, §3

| Structure (SMILES) | Partition coefficient KX ([1]; POPC:POPG 8:2 SUVs, buffer A pH 7.4, 25 °C, tryptophan fluorescence ratio 330/370 nm, S.D. within ± 10%) | Partition coefficient Kx ([1]; POPC:POPG 8:2 membranes) | pKd ([1]; converted from KX: [W]/KX = Kd, [W] = 55.5 M, read-out: Kd for POPC:POPG 8:2) | ∆GKx for POPC POPG 8:2 ([1]; ∆GKx = -RT Ln Kx, S.D. within ± 10%) | CP1/2, peptide concentration required to induce recovery of 50% of ANTS fluorescence intensity upon LUVs permeabilization ([2]; ANTS:DPX LUVs POPC:POPG 8:2, 0.45 mM lipid, buffer A pH 7.4, 25 °C, ex 390/em 515 nm, S.D. ± 5%) | Effect of holo-CaM addition on peptide-induced vesicle permeabilization ([2]; LUVs 0.45 mM lipid, buffer B (2 mM CaCl2), peptide:CaM molar ratio 1:3) | alpha-helical content, TFE 20% ([3]; 20% TFE) | alpha-helical content, POPC:POPG 8:2 ([3]; SUVs POPC:POPG 8:2 at 2 mM lipid) | alpha-helical content, Solution ([3]; buffer A) | Sedimentation coefficient [4] | Effect on AC enzymatic activity [5] | pKi [6] | Effect of CDZ on CaM association with the AC domain ([7]; AC364 10 µM) | Effect of CDZ on the H:CaM complex ([7]; H 10 µM) | Effect of CDZ on CaM association with P454 ([7]; P454 10 µM) | Amount of internalized AC with CDZ [8] |
| --- | --- | --- | --- | --- | --- | --- | --- | --- | --- | --- | --- | --- | --- | --- | --- | --- |
| CC[C@H](C)[C@H](NC(=O)[C@H](C)NC(=O)[C@H](Cc1c[nH]cn1)NC(=O)[C@@H](NC(=O)[C@H](CC(C)C)NC(=O)[C@H](CCCNC(=N)N)NC(=O)[C@H](CCC(N)=O)NC(=O)[C@H](C)NC(=O)[C@H](C)NC(=O)[C@H](C)NC(=O)[C@@H](NC(=O)[C@H](C)NC(=O)[C@H](CCC(N)=O)NC(=O)[C@H](C)NC(=O)CNC(=O)[C@H](CCC(N)=O)NC(=O)[C@H](CC(C)C)NC(=O)[C@H](C)NC(=O)[C@H](CCCNC(=N)N)NC(=O)[C@H](CCC(N)=O)NC(=O)CNC(=O)[C@H](Cc1c[nH]c2ccccc12)NC(=O)[C@H](Cc1c[nH]cn1)NC(=O)[C@H](C)NC(=O)[C@H](CO)NC(=O)[C@H](C)NC(C)=O)C(C)C)C(C)C)C(=O)N[C@@H](C)C(=O)N[C@@H](CC(C)C)C(=O)N[C@@H](CCSC)C(=O)N[C@H](C(=O)N[C@@H](CCC(N)=O)C(N)=O)[C@@H](C)O [P454] | 790 ×10^3 | 790 000 | 4.15 | -8 kcal/mol | 0.07 µM | immediately stopped | 60 ± 2% | 50 ± 1% | 17 ± 2% | 0.65 S | – | – | – | – | – | – |
| Clc1ccc(C(c2ccc(Cl)cc2)n2cc[n+](CC(OCc3ccc(Cl)cc3Cl)c3ccc(Cl)cc3Cl)c2)cc1 (stereo not shown) [CDZ, Calmidazolium chloride] | – | – | – | – | – | – | – | – | – | – | no inhibitory effect | 7.30 to 8.00 | not with the AC domain | partially inhibited | can specifically inhibit | drastically reduced |
